Columns and labels:
HS-PSS [1] = assay: drug sensitivity score (DSS, CellTiter-Glo viability, 72 h) (DSS (dimensionless)); higher = more sensitive; extreme values may be limits of the assay
How it was run: (§1)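 MPNST cell lines and primary human Schwann cells were seeded at 750–1000 cells per well into 384-well plates preprinted with each compound at five concentrations in 10-fold steps, then incubated 72 h at 37 °C, 5% CO2. CellTiter-Glo ATP luminescence gave viability, scaled between vehicle and positive-control wells, with duplicates averaged where present. Curves were fitted with a four-parameter logistic model. Percent inhibition refers to the top concentration, while drug sensitivity score and relative IC50, censored at the top concentration, come from these fits.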

YST-1 [2] = assay: as above
How it was run: as §1

HS-Sch-2 [3] = assay: as above
How it was run: as §1

HS-PSS [4] = assay: drug sensitivity score (DSS, CellTox-Green cytotoxicity, 72 h) (DSS (dimensionless)); higher = more cytotoxic; extreme values may be limits of the assay
How it was run: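 For 72 h at 37 °C, MPNST cell lines and primary human Schwann cells were exposed in 384-well plates to five 10-fold compound dilutions. CellTox-Green, added before seeding at a final 1:1000 dilution, gave fluorescence from DNA released by disrupted cells. Signals were scaled to vehicle and positive-control wells, cultures failing plate quality control were left out, and four-parameter logistic fits were applied. Relative IC50 and drug sensitivity score were derived from the fits, with IC50 censored at the top concentration.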

HS-PSS [5] = assay: % inhibition of CellTiter-Glo viability at highest tested concentration (72 h), relative to DMSO and benzethonium chloride controls; higher = more inhibition
How it was run: as §1

YST-1 [6] = assay: as above
How it was run: as §1

HS-Sch-2 [7] = assay: as above
How it was run: as §1

| Compound | drug sensitivity score (HS-PSS [1]) | drug sensitivity score (YST-1 [2]) | drug sensitivity score (HS-Sch-2 [3]) | drug sensitivity score (HS-PSS [4]) | % inhibition (HS-PSS [5]) | % inhibition (YST-1 [6]) | % inhibition (HS-Sch-2 [7]) |
| --- | --- | --- | --- | --- | --- | --- | --- |
| NS(=O)(=O)NCCNc1nonc1/C(=N/O)Nc1ccc(F)c(Br)c1 [Epacadostat] (max concentration tested 10000 nM) | 0 | 0 | 0.29 | 0 | 6.08% | 12.5% | 13.3% |
| c1cn2cc(-c3ccc4cn[nH]c4c3)nc(Nc3ccc(N4CCOCC4)cc3)c2n1 [Entospletinib] (max concentration tested 5000 nM) | 0 | 0.45 | 0.89 | 0.89 | -4.13% | 12% | -16% |
| Cc1cc(Nc2ncc(Cl)c(Nc3ccccc3S(=O)(=O)C(C)C)n2)c(OC(C)C)cc1C1CCNCC1 [Ceritinib] (max concentration tested 2500 nM) | 10.6 | 8.09 | 1.13 | 0.17 | 64.5% | 82.3% | 30.9% |
| O=C(c1ccc(F)c(F)c1Nc1ccc(I)cc1F)N1CC(O)([C@@H]2CCCCN2)C1 [Cobimetinib] (max concentration tested 1000 nM) | 4.46 | 0 | 4.02 | 0.01 | 49.3% | -5.92% | 69.5% |
| COc1ccc(COc2cc3oc(=O)c4cc(C(C)O)ccc4c3cc2OC)cc1 (configuration not stated) [Palomid-529] (max concentration tested 10000 nM) | 0 | 0 | 0 | 0 | 2.33% | 10.2% | -4.31% |
| CCN(CC)CCCC(C)Nc1ccnc2cc(Cl)ccc12 (configuration not stated) [Chloroquine] (max concentration tested 100000 nM) | 18.7 | 9.66 | 17.1 | 9.74 | 102% | 102% | 102% |
| NC(=O)c1cccc(-c2cccc(OC(=O)NC3CCCCC3)c2)c1 [URB597] (max concentration tested 1000 nM) | 1.09 | 0 | 0 | 0 | 18.8% | -6.54% | 0.43% |
| Cn1ncc(Cl)c1-c1cc(C(=O)N[C@H](CN)Cc2ccc(F)c(F)c2)oc1Cl [Uprosertib] (max concentration tested 10000 nM) | 0 | 3.04 | 0 | 0 | 9.97% | 21.9% | 6.41% |
| CCN1CCN(Cc2ccc(-c3cc4c(N[C@H](C)c5ccccc5)ncnc4[nH]3)cc2)CC1 [NVP-AEE788] (max concentration tested 2500 nM) | 1.04 | 1.87 | 0 | 0 | 22.7% | 22.3% | 2.96% |
| CNC(=O)c1cccc2cc(Oc3ccnc4cc(OCC5(N)CC5)c(OC)cc34)ccc12 [Lucitanib] (max concentration tested 10000 nM) | 1.71 | 2.13 | 1.19 | 0 | 23.4% | 26.4% | 31.9% |
| Cn1cc(-c2cnn3c(N)c(Br)c([C@@H]4CCCNC4)nc23)cn1 [MK-8776] (max concentration tested 2500 nM) | 0 | 2.03 | 7.06 | 0 | 7.73% | 29.6% | 72% |
| COc1c(OCCCN2CCOCC2)ccc2c1N=C(NC(=O)c1cnc(N)nc1)N1CCN=C21 [Copanlisib] (max concentration tested 1000 nM) | 1.69 | 17.5 | 7.87 | 0 | 44% | 92.5% | 70.5% |
| C[C@@H]1C[C@H]2O[C@@H]2/C=C\C=C\C(=O)Cc2c(Cl)c(O)cc(O)c2C(=O)O1 [Radicicol] (max concentration tested 10000 nM) | 12.9 | 12.1 | 16.3 | 4.33 | 86.2% | 94% | 99.8% |
| Cc1cc([C@@H](C)Nc2ccccc2C(=O)O)c2nc(N3CCOCC3)cc(=O)n2c1 [AZD-6482] (max concentration tested 2500 nM) | 0 | 0.53 | 0 | 0 | 9.25% | 17.1% | 0.36% |
| Cc1ncc(Cl)cc1NCc1ccc(C(=O)N[C@@H](CC2CCCC2)C(=O)NC2CC2)s1 (max concentration tested 5000 nM) | 0 | 8.01 | 0.17 | 0 | 10.8% | 45.9% | 12.8% |
| Nc1nc2[nH]cc(CCc3ccc(C(=O)N[C@@H](CCC(=O)O)C(=O)O)cc3)c2c(=O)[nH]1 [Pemetrexed] (max concentration tested 10000 nM) | 0 | 4.42 | 17.1 | 0 | 6.45% | 19.7% | 62.5% |
| CCN(CC)CCCC(C)Nc1c2ccc(Cl)cc2nc2ccc(OC)cc12 (configuration not stated) [Mepacrine] (max concentration tested 50000 nM) | 18.5 | 17.3 | 18.5 | 18 | 101% | 101% | 101% |
| CCCOc1ccn2c(C(C)=O)cc(-c3ccccc3S(C)(=O)=O)c2c1 [GSK2801] (max concentration tested 10000 nM) | 0 | 0 | 0 | 0 | 0.71% | 0.58% | -6.2% |

| Compound | drug sensitivity score (HS-PSS [1]) | drug sensitivity score (YST-1 [2]) | drug sensitivity score (HS-Sch-2 [3]) | drug sensitivity score (HS-PSS [4]) | % inhibition (HS-PSS [5]) | % inhibition (YST-1 [6]) | % inhibition (HS-Sch-2 [7]) |
| --- | --- | --- | --- | --- | --- | --- | --- |
| Cc1cccc(-c2[nH]c(CNc3ccccc3F)nc2-c2ccc3ncnn3c2)n1 [TEW-7197] (max concentration tested 2500 nM) | 1.89 | 0 | 0.08 | 0 | 23.2% | -10.6% | 13.1% |
| CC(=O)N(O)CCCCCNC(=O)CCC(=O)N(O)CCCCCNC(=O)CCC(=O)N(O)CCCCCN [Deferoxamine] (max concentration tested 10000 nM) | 8.62 | 6.36 | 10.5 | 1 | 89.5% | 78.5% | 96.3% |
| CCCNC(=O)Nc1ccc(Oc2ncnc3cc(OC)c(OC)cc23)cc1Cl [KRN-633] (max concentration tested 2500 nM) | 0 | 0 | 0 | 0 | 10.5% | 7.23% | -7.09% |
| O=C(O)c1ccc(CN2CCC(CN[C@@H]3C[C@H]3c3ccccc3)CC2)cc1 (max concentration tested 10000 nM) | 0 | 0 | 0 | 0 | 2.06% | -3.86% | -4.91% |
| O=C(CCCCCCNC(=O)c1cnc(N(c2ccccc2)c2ccccc2)nc1)NO [Rocilinostat] (max concentration tested 10000 nM) | 3.58 | 9.5 | 6.66 | 0.39 | 58.4% | 89.5% | 81.2% |
| C[C@@H](Nc1cc(F)cc(F)c1)c1cc(C(=O)N(C)C)cc2c(=O)cc(N3CCOCC3)oc12 [AZD-8186] (max concentration tested 1000 nM) | 0 | 1.06 | 0 | 0 | -3.47% | 28.9% | -0.99% |
| O=S(=O)(c1cccc2c(O)nccc12)N1CCCNCC1 [Hydroxyfasudil] (max concentration tested 37500 nM) | 1.21 | 0.03 | 1.47 | 0 | 19.5% | 12.7% | 21.6% |
| CC(C)NC[C@@H](C(=O)N1CCN(c2ncnc3c2[C@H](C)C[C@H]3O)CC1)c1ccc(Cl)cc1 [Ipatasertib] (max concentration tested 10000 nM) | 3.83 | 6.9 | 4.24 | 0.28 | 37.1% | 55.2% | 39.1% |
| COc1cccc2c1c(O)c(C(=O)N(C)c1ccc(C(F)(F)F)cc1)c(=O)n2C [Tasquinimod] (max concentration tested 10000 nM) | 0.69 | 3.88 | 0 | 0 | 11.8% | 20.7% | 8.66% |
| O=C(Nc1cccc(Cl)c1)Nc1ncc(CCNc2ncnc3ccsc23)s1 [SNS-314] (max concentration tested 1000 nM) | 2.01 | 8.57 | 4.4 | 0 | 23.8% | 36.5% | 53.3% |
| O=C(Nc1nc2ccccc2n1CCN1CCOCC1)c1cccc([N+](=O)[O-])c1 [IRAK1/4 inhibitor] (max concentration tested 25000 nM) | 0 | 0 | 0 | 0 | 3.76% | 6.78% | -2.86% |
| CN(CC(=O)N(Cc1ccc(C2CCCCC2)cc1)c1ccc(C(=O)O)cc1)S(=O)(=O)c1c(F)c(F)c(F)c(F)c1F [SH-4-54] (max concentration tested 25000 nM) | 5.78 | 10.3 | 7.18 | 3.21 | 98.7% | 100% | 93% |
| CCNC(=O)C[C@@H]1N=C(c2ccc(Cl)cc2)c2cc(OC)ccc2-n2c(C)nnc21 (max concentration tested 10000 nM) | 7.28 | 10.2 | 8.49 | 0 | 58.4% | 65.3% | 63.1% |
| CNC(=O)c1ccccc1Nc1nc(Nc2ccc3c(c2OC)CCC[C@H](N2CCN(CCO)CC2)C3)ncc1Cl (max concentration tested 5000 nM) | 15 | 8.71 | 7.99 | 2.99 | 86.5% | 82.8% | 98.5% |
| Cc1cc(C(=O)NOCCO)c(Nc2ccc(I)cc2F)n(C)c1=O [AZD-8330] (max concentration tested 10000 nM) | 8.85 | 0 | 11.6 | 0 | 51.1% | 3.34% | 53.5% |
| Cc1cnc(Nc2ccc(OCCN3CCCC3)cc2)nc1Nc1cccc(S(=O)(=O)NC(C)(C)C)c1 [Fedratinib] (max concentration tested 10000 nM) | 9.41 | 8.29 | 10.8 | 3.87 | 96.5% | 87.1% | 102% |
| Cc1sc2c(c1C)C(c1ccc(Cl)cc1)=N[C@@H](CC(=O)OC(C)(C)C)c1nnc(C)n1-2 [JQ1] (max concentration tested 10000 nM) | 10 | 13.1 | 13.1 | 0 | 59.1% | 72.6% | 76.3% |
| Clc1ccccc1C(c1ccccc1)(c1ccccc1)n1cccn1 [TRAM-34] (max concentration tested 1000 nM) | 0.59 | 0 | 0.38 | 0 | 13.4% | 3.42% | 15.5% |

— the supplement of paper PMC5579334
